From patent publication US6734184B1, “Arylpiperazines and their use as metalloproteinase inhibiting agents (MMP)” (AstraZeneca AB, priority 1998, dated 2004)

Row | melting point | SMILES
1 | 130 to 140 °C | O=CN(O)C(CCc1cccnc1)CS(=O)(=O)N1CCC(Oc2ccc(Cl)cn2)CC1 (stereo not drawn) [Example 14, N-{1-[({4-[(5-Chloropyridin-2-yl)oxy]piperidino}sulfonyl)methyl]-3-pyridin-3-ylpropyl}-N-hydroxyformamide]
2 | 155 to 157 °C | O=CN(O)C(CCc1ccccc1)CS(=O)(=O)N1CCN(c2cc(Cl)ncn2)CC1 (stereo not drawn) [N-[1-({[4-(6-chloropyrimidin-4-yl)piperazino]sulphonyl}methyl)-3-phenylpropyl]-N-hydroxyformamide]
3 | 118 to 120 °C | O=CN(O)C(COCc1ccccc1)CS(=O)(=O)N1CCN(c2cc(Cl)ncn2)CC1 (stereo not drawn) [N-[2-(benyloxy)-1-({[4(6-chloropyrimidin-4-yl)piperazino]sulphonyl}methyl)ethyl]-N-hydroxyformamide]
